Reference: patent US12195551B2, “Combination of an ErbB-2/ErbB-3 bispecific antibody with endocrine therapy for breast cancer” (Merus N.V., priority 2017, dated 2025)
Where “and” joins values, the source holds several entries; their conditions need not be identical. Identical values can stand only once. Like-named read-outs stand apart in the source and are kept apart here.

Experiments:
[1] = test system: human HBCx-34 breast tumor xenograft; assay: Antitumor efficacy in HBCx-34 patient-derived breast cancer xenograft (study XTS-1521); assay type: in vivo, mouse
Experimental: Antitumor efficacy of an HER2/HER3 targeting antibody was determined in the context of a combination treatment together with an aromatase inhibitor. […] It was used as single agent and in combination with the aromatase inhibitor Letrozole. The hormone-dependent HBCx-34 patient-derived breast cancer xenograft model established in immunodeficient mice was used as an example of a breast cancer.
The HBCx-34 PDX model was derived from a treatment-naïve primary breast infiltrating ductal carcinoma.
Tumor-bearing mice received estrogen diluted in drinking water (β-oestradiol, 8.5 mg/l), from the date of tumor implant to the date of inclusion. During the treatment period, mice were not supplemented with estrogen.
Tumors of the same passage were transplanted subcutaneously onto 6-24 mice (donor mice, passage (n−1)). When these tumors reached 1000 to 2000 mm^3, donor mice were sacrificed by cervical dislocation, tumors were aseptically excised and dissected. After removing necrotic areas, tumors were cut into fragments measuring approximately 20 mm^3 and transferred in culture medium before grafting.
95 mice were anaesthetized with 100 mg/kg ketamine hydrochloride (batch 5D92, Exp: 2017/03, Virbac) and 10 mg/kg xylazine (batch KP0AX9X, Exp: 2017/08, Bayer), and then skin was aseptized with a chlorhexidine solution, incised at the level of the interscapular region, and a 20 mm^3 tumor fragment was placed in the subcutaneous tissue. Skin was closed with clips. All mice from the same experiment were implanted on the same day.
Treatments were randomly attributed to boxes housing up to 5 mice and were initiated 36 days post implantation of the tumor (42% inclusion rate). The study was terminated following 57 days after the start of treatment.
Tumor volume was evaluated by measuring tumor diameters, with a calliper, biweekly during the experimental period.
The formula TV (mm3)=[length (mm)×width (mm)2]/2 was used, where the length and the width are the longest and the shortest diameters of the tumor, respectively.
A total of 4 groups were used as summarized in the scheme below. Each group initially included 10 mice.
All treatment doses were body weight adjusted at each injection.

HBCx-34 PDX model = details: model characterisation; cited from earlier work
HBCx-34 tumors = assay: In vivo growth characteristics of the HBCx-34 PDX model (FIG. 4); set-up: species or system mouse; details: animals that did not receive estrogens, vs vehicle
Experimental: FIG. 4. In vivo growth characteristics of the HBCx-34 PDX model. A, IHC characteristics of HBCx-34 PDX tumors. B, Athymic nude mice were engrafted s.c. with HBCx-34 tumors. […] T-tests were performed to compare tumor volumes from estrogen-independent tumors treated with vehicle or Letrozole (*, p<0.05, **, p<0.01, ***, p<0.001).

[2] = MCLA-128 25 mg/kg IP, Letrozole […] PO qdx57
[3] = MCLA-128 25 mg/kg i.p., Letrozole […] p.o. qdx57, day of maximum as in text

SMILES: N#Cc1ccc(C(c2ccc(C#N)cc2)n2cncn2)cc1 [Letrozole]
- Mann-Whitney test on tumor volume ([1]; DAY 25, vs vehicle group): * (* = P < 0.05)
- Mann-Whitney test on tumor volume ([1]; DAY 28, vs vehicle group): * (* = P < 0.05)
- Dunn's Multiple Comparison Test on tumor volume ([1]; DAY 32, vs MCLA-128 25): * (* = P < 0.05)
- Mann-Whitney test on tumor volume ([1]; DAY 32, vs vehicle group): ** (** = P < 0.01)
- Dunn's Multiple Comparison Test on tumor volume ([1]; DAY 35, vs MCLA-128 25): ** (** = P < 0.01)
- Dunn's Multiple Comparison Test on tumor volume ([1]; DAY 35, vs Vehicle MCLA-128): * (* = P < 0.05)
- Mann-Whitney test on tumor volume ([1]; DAY 35, vs vehicle group): *** (*** = P < 0.001)
- Dunn's Multiple Comparison Test on tumor volume ([1]; DAY 39, vs MCLA-128 25): ** (** = P < 0.01)
- Dunn's Multiple Comparison Test on tumor volume ([1]; DAY 39, vs Vehicle MCLA-128): * (* = P < 0.05)
- Mann-Whitney test on tumor volume ([1]; DAY 39, vs vehicle group): *** (*** = P < 0.001)
- Dunn's Multiple Comparison Test on tumor volume ([1]; DAY 42, vs MCLA-128 25): ** (** = P < 0.01)
- Dunn's Multiple Comparison Test on tumor volume ([1]; DAY 42, vs Vehicle MCLA-128): * (* = P < 0.05)
- Mann-Whitney test on tumor volume ([1]; DAY 42, vs vehicle group): *** (*** = P < 0.001)
- Dunn's Multiple Comparison Test on tumor volume ([1]; DAY 46, vs MCLA-128 25): ** (** = P < 0.01)
- Dunn's Multiple Comparison Test on tumor volume ([1]; DAY 46, vs Vehicle MCLA-128): * (* = P < 0.05)
- Mann-Whitney test on tumor volume ([1]; DAY 46, vs vehicle group): *** (*** = P < 0.001)
- Dunn's Multiple Comparison Test on tumor volume ([1]; DAY 49, vs MCLA-128 25): ** (** = P < 0.01)
- Dunn's Multiple Comparison Test on tumor volume ([1]; DAY 49, vs Vehicle MCLA-128): * (* = P < 0.05)
- Mann-Whitney test on tumor volume ([1]; DAY 49, vs vehicle group): *** (*** = P < 0.001)
- Dunn's Multiple Comparison Test on tumor volume ([1]; DAY 53, vs MCLA-128 25): ** (** = P < 0.01)
- Dunn's Multiple Comparison Test on tumor volume ([1]; DAY 53, vs Vehicle MCLA-128): * (* = P < 0.05)
- Mann-Whitney test on tumor volume ([1]; DAY 53, vs vehicle group): *** (*** = P < 0.001)
- Dunn's Multiple Comparison Test on tumor volume ([1]; DAY 56, vs MCLA-128 25): ** (** = P < 0.01)
- Dunn's Multiple Comparison Test on tumor volume ([1]; DAY 56, vs Vehicle MCLA-128): * (* = P < 0.05)
- Mann-Whitney test on tumor volume ([1]; DAY 56, vs vehicle group): *** (*** = P < 0.001)
- Best T/C % [1, 2]: 18.68%
- Best TGE % [1, 2]: 145.70%
- T/C % (at control group day end) [1, 2]: 18.68%
- TGI % (at control group day end) [1, 2]: 121.97%
- median TGD × 3 (In days) [1, 2]: >56 days
- tumor growth inhibition (in words) ([1]; MCLA-128 25 mg/kg i.p., Letrozole […] p.o. qdx57): statistically significant tumor growth inhibition
- Mann-Whitney test on tumor volume: STAT ([1]; STAT column, vs vehicle group): *** (*** = P < 0.001)
- TFS (Tumor Free Survivor) ([1]; number of complete regressions recorded up to Group Day End): 1
- CR (complete regression) ([1]; number of mice with 0 to 14 mm^3 tumor size during at least 3 consecutive measurements): 1/10 and 1
- TS (Tumor Stabilization) ([1]; number of mice with constant tumor size during at least 6 consecutive measurements): 1
- PR (partial regression) ([1]; number of mice with tumor size lower than initial during at least 6 consecutive measurements): 7/10 and 7
- p compared to the group control by Dunn's test ([1]; tumor growth inhibition): < 0.05
- p compared with the vehicle group, Mann Whitney test ([1]; tumor growth inhibition): < 0.001
- Dunn's Multiple Comparison Test on relative body weight (DAY 25, vs MCLA-128 25): * (* = P < 0.05)
- Dunn's Multiple Comparison Test on relative body weight (DAY 28, vs Vehicle MCLA-128): * (* = P < 0.05)
- Dunn's Multiple Comparison Test on relative body weight (DAY 32, vs MCLA-128 25): ** (** = P < 0.01)
- Dunn's Multiple Comparison Test on relative body weight (DAY 32, vs Vehicle MCLA-128): ** (** = P < 0.01)
- Dunn's Multiple Comparison Test on relative body weight (DAY 35, vs MCLA-128 25): * (* = P < 0.05)
- Dunn's Multiple Comparison Test on relative body weight (DAY 35, vs Vehicle MCLA-128): ** (** = P < 0.01)
- Dunn's Multiple Comparison Test on relative body weight (DAY 39, vs MCLA-128 25): ** (** = P < 0.01)
- Dunn's Multiple Comparison Test on relative body weight (DAY 39, vs Vehicle MCLA-128): ** (** = P < 0.01)
- Dunn's Multiple Comparison Test on relative body weight (DAY 42, vs Vehicle MCLA-128): ** (** = P < 0.01)
- Dunn's Multiple Comparison Test on relative body weight (DAY 46, vs MCLA-128 25): ** (** = P < 0.01)
- Dunn's Multiple Comparison Test on relative body weight (DAY 46, vs Vehicle MCLA-128): ** (** = P < 0.01)
- Dunn's Multiple Comparison Test on relative body weight (DAY 49, vs MCLA-128 25): ** (** = P < 0.01)
- Dunn's Multiple Comparison Test on relative body weight (DAY 49, vs Vehicle MCLA-128): ** (** = P < 0.01)
- Dunn's Multiple Comparison Test on relative body weight (DAY 53, vs MCLA-128 25): ** (** = P < 0.01)
- Dunn's Multiple Comparison Test on relative body weight (DAY 53, vs Vehicle MCLA-128): ** (** = P < 0.01)
- Dunn's Multiple Comparison Test on relative body weight (DAY 56, vs MCLA-128 25): ** (** = P < 0.01)
- Dunn's Multiple Comparison Test on relative body weight (DAY 56, vs Vehicle MCLA-128): ** (** = P < 0.01)
- maximum individual body weight loss [3]: 4.1%
- maximum mean body weight loss [3]: no mean body weight loss
- response of the HBCx-34 PDX model (HBCx-34 PDX model): low responder
- formation of estrogen-independent tumors (HBCx-34 tumors): significantly reduced the formation of estrogen-independent tumors
